Data from patent US20250197390A1, “FUSED HETEROCYCLIC COMPOUND, AND PREPARATION METHOD THEREFOR AND MEDICAL USE THEREOF” (Jiangsu Hengrui Pharmaceuticals Co., Ltd., priority 2022, published 2025).

Legend:
HT29 cells = assay: Inhibition of necroptosis of HT29 cells (CTG method); type: cell-based; details: Homo sapiens, HT-29, TZA mixture (TNFα, Z-VAD-FMK, AT-406) 24 h, CellTiter-Glo, read-out: IC50, inhibitory effect on necroptosis of HT29 cells
Description: Test Example 1: Inhibitory Effects of Compounds of the Present Disclosure on Necroptosis of HT29 Cells
The CTG method was used for detecting the inhibitory effects of the compounds of the present disclosure on the necroptosis of HT29 cells. The specific procedures are as follows:
HT29 cells were purchased from American Type Culture Collection (ATCC, HTB-38) and cultured with a McCoy's 5A medium (10% FBS) in a 37° C. incubator with 5% carbon dioxide. The cell culture density was maintained at 2×10^4 to 8×10^4 cells/cm^2, and the cells were passaged 2-3 times a week.
• a. Test compounds were dissolved in DMSO to 2 mM. • b. The compounds were 3-fold diluted from an initial concentration of 2 mM to 10 gradient concentrations. • c. All concentrations of compounds were 100-fold diluted with the culture medium for later use.
• a. The cells were counted, and the cell density was adjusted to 1×10^5 cells/mL with a fresh culture medium. • b. The cells were seeded in a 96-well plate at 80 µL/well and cultured at 37° C. overnight. • c. […] After the culture plate was left to stand at room temperature for 0.5 h, a stable luminescence signal was obtained, and then the plate was read using a microplate reader. • g. The IC50 values of the compounds of the present disclosure were calculated by the Graphpad software.

RIPK1 kinase = RIPK1 kinase (Homo sapiens (Human), UniProt Q13546); assay: RIPK1 kinase inhibition (ADP-Glo method); type: biochemical; details: ATP and MBP substrate, 90 min, read-out: IC50, inhibitory activity against RIPK1 kinase
RIPK1 kinase, sequence (Q13546 1-327): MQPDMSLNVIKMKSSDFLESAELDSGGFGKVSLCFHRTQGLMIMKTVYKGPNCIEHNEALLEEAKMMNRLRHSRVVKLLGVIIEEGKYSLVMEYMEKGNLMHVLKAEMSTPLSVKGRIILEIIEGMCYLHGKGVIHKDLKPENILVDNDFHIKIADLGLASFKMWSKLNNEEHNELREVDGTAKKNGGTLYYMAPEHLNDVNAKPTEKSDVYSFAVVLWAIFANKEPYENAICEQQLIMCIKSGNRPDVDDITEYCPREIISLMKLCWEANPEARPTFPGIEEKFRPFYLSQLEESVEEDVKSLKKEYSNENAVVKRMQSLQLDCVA
Description: Test Example 2: Inhibitory Activities of Compounds of the Present Disclosure Against RIPK1 Kinase (ADP-Glo Method)
The ADP GLO method was used for detecting the inhibitory activities of the compounds of the present disclosure against RIPK1 kinase. The method is specifically as follows:
• 1) RIPK1 kinase reaction system (containing RIPK1 kinase, MBP, 5× reaction buffer, MnCl2 and DTT) (Promega, VA7592) • 2) ADP-Glo kinase detection kit (containing ADP-Glo reagent and kinase detection reagents) (Promega, V9101) • 3) ATP solution (10 mM) (Thermofisher PV3227) • 4) 96-well small-volume white plate (Cisbio, 66PL96100) • 5) PHERA star microplate reader (BMG labtech)
• a. Reaction buffer: a reaction buffer containing DTT at a final concentration of 50 μM and MnCl2 at a final concentration of 4 mM was prepared using 5× reaction buffer; • b. RIPK1 kinase solution: a RIPK1 kinase solution at a final concentration of 10 ng/μL was prepared using the reaction buffer; • c. […]
• a. […] The plate was read using the PHERA star microplate reader, and relative luminescence unit (RLU) values were recorded. • g. Plotting was performed using the Graphpad software, and the IC50 values of the compounds of the present disclosure were calculated.

[1] = Pharmacokinetic evaluation in beagles after intragastric administration; type: in vivo; details: both sexes, beagle, dog, plasma, po, 2 mg/kg
Description: Test Example 3: Pharmacokinetic Evaluation of Compound of the Present Disclosure in Dogs
Beagles were used as test animals. Plasma concentrations of the compound of Example 2 at different time points after intragastric administration of Example 2 compound to beagles were determined using an LC/MS/MS method. The pharmacokinetic performance of the compound of the present disclosure was studied in beagles and its pharmacokinetic profile was evaluated.
Eight beagles were provided by Jiangsu Johnbio Biotechnology Co., Ltd., with an equal number of males and females. The production license number was SCXK (Jiangsu) 2018-0005.
A certain amount of the compound of Example 2 was weighed out, and 5% DMSO+30% PG+30% PEG400+35% normal saline were added to prepare a 0.4 mg/mL clear solution.
The compound of Example 2 was administered at a dose of 2 mg/kg with a volume of 5 mL/kg.
The compound of Example 2 was intragastrically administered to the beagles. 0.5 mL of blood samples were collected from the forelimb vein 0 h before administration and 15 min, 30 min, 1.0 h, 2.0 h, 4.0 h, 6.0 h, 8.0 h, 11.0 h, and 24.0 h after administration. The blood samples were placed into EDTA-K2 anticoagulation test tubes and centrifuged at 10,000 rpm for 2 min (4° C.), and plasma was separated within 1 h and stored in a −80° C. refrigerator/dry ice before analysis. Two hours after administration, feeding was resumed.
After the administration of the compound of Example 2, the plasma concentrations of the compound of Example 2 in the beagles were determined: 50 μL of the beagle plasma at each time point after the administration was taken, and 25 μL of internal standard solution ([…] camptothecin) and 450 μL of acetonitrile were added, and the mixture was vortexed and centrifuged at 3700 rpm for 10 min. 0.5 μL of supernatant was collected for LC/MS/MS analysis.

IC50 (RIPK1 kinase) [nM] | Vd/F ([1]; read-out: Apparent volume of distribution Vz/F) [L/kg] | AUC(0-t) ([1]; read-out: Area under curve AUC0-t) [ng·h/mL] | CL/F ([1]; read-out: Clearance rate CL/F) [mL/min/kg] | half-life ([1]; read-out: Half-life T1/2 (converted)) [h] | Cmax ([1]; read-out: Plasma concentration Cmax) [ng/mL] | MRT ([1]; read-out: Residence time MRT) [h] | SMILES | IC50 (HT29 cells) [nM]
2.7 | 0.49 | 51600 | 0.48 | 12.5 | 2940 | 19.4 | Nc1nc2cc(-c3ccc4c(c3)C(=O)N(Cc3cc(OC(F)(F)F)ccc3F)CCC4)ccn2n1 [Example 2, 8-(2-Amino-[1,2,4]triazolo[1,5-a]pyridin-7-yl)-2-(2-fluoro-5-(trifluoromethoxy)benzyl)-2,3,4,5-tetrahydro-1H-benzo[c]azepin-1-one] | 1.5
23 | – | – | – | – | – | – | Nc1nc2cc(-c3ccc4c(c3)C(=O)N(Cc3cc(OC(F)(F)F)ccc3F)CCO4)ccn2n1 [Example 1, 7-(2-Amino-[1,2,4]triazolo[1,5-a]pyridin-7-yl)-4-(2-fluoro-5-(trifluoromethoxy)benzyl)-3,4-dihydrobenzo[f][1,4]oxazepin-5(2H)-one] | 13.3
